Structures can show the parent of a compound that is named as a salt. Where two headings read alike, the source gives them in different places.
Legend:
[1] = human, in vivo, cited from earlier work
[2] = human; cited from earlier work
[3] = cited from earlier work
[4] = in vivo; parameters: species or system mice; settings: male, C57BL/6J, mouse, 30 mg/kg; for half-life: T1/2 (plasma)
Experimental: Adult male C57BL/6J mice (8–9 weeks, 23–27 g) were purchased from the Jackson Laboratory, Bar Harbor, ME, USA. Mice were housed in ventilated cages with controlled temperature and humidity, and a 12 h light/dark cycle. Food and water were available ad libitum, and animals were habituated to the experimental room for three days before the start of the study. All procedures were conducted according to a protocol approved by the Texas Tech University Health Sciences Center Institutional Animal Care and Use Committee (protocol 21039, approved on 26 July 2023). […] Plasma and brain samples were collected 5, 20, 60, 120, and 180 min after the drug administration. […] Mice were deeply anesthetized with isoflurane and decapitated, followed by blood collection in a microtube containing heparin. Plasma was obtained by centrifugation of the microtube for 10 min at 5000× g at 4 °C. The brains were quickly removed and delicately cleansed on filter paper with sterile saline, the surface vasculature was removed using gauze tipped in saline, and the forebrains were quickly frozen using dry ice. Plasma and brain samples were stored at −80 °C until bioanalysis. The brain samples were homogenized at 1:10 (w/v) in LC-MS-grade water using BioSpec Tissue-Tearor Homogenizer. The plasma sample was diluted 10-fold (v/v) in LC-MS-grade water. The plasma samples and brain homogenates were subjected to protein precipitation using ice-cold acetonitrile (1:4 ratio) containing 0.1% formic acid along with the IS (10 ng/mL). The samples underwent continuous vortexing for 5 min, followed by centrifugation at 12,800× g at 4 °C. The resulting clear supernatant was used for injection into the mass spectrometer. LC-MS/MS analysis was conducted using a QTRAP 5500 mass spectrometer (SCIEX, Foster City, CA, USA) connected with a SHIMADZU Prominence LC system (Kyoto, Japan), consisting of an LC-30AD solvent delivery unit, a DGU-20A3R degassing unit, a CTO-30A column oven, and a SIL-30AC autosampler. Chromatographic separation was achieved on an EVO-C18 100Å column (1.7 µm i.d., 50 × 2.1 mm). The mobile phase comprised 0.1% formic acid in water (A) and 0.1% formic acid in acetonitrile (B) at a flow rate of 0.3 mL/min. […] The autosampler and column temperatures were 4 °C and 40 °C, respectively. The injection volume was 2 μL. The mass spectrometric detection of the analytes was executed using multiple reaction monitoring (MRM) with an electrospray ionization (ESI) source in positive ion mode. The conditions were curtain gas, 35 psi; ion spray voltage, 5500 V; temperature, 500 °C; ion source gas 1, 50 psi; and ion source gas 2, 55 psi. […] For milnacipran-d10, which served as the IS, the MH^+ was monitored at m/z 257.2, whereas a fragment at m/z 110.2 was monitored as the product ion. […] Data acquisition and processing were carried out using Sciex Analyst (version 1.7) and MultiQuant software (version 3.0), respectively. The pharmacokinetic parameters were assessed using standard non-compartmental analysis. Microsoft Excel and GraphPad Prism 8.4.3 software were used for calculations and graphical presentation. The apparent first-order terminal rate constant (Kel) with 95% confidence interval (95% CI) was obtained in Prism by linear regression of log-transformed plasma concentration versus time data. The linear trapezoidal model was used for both IV and IP administration to determine area under the curve from time 0 to 3 h (AUC0-3). AUC0-∞ (area under the curve from time 0 to infinity) was obtained by extrapolation to infinity, using the mean concentration at the terminal time point and Kel. The standard errors (SE) of AUC0-3 and AUC0-∞ were calculated applying Bailer’s method for sparse data. Cmax and Tmax values after IP administration are based on actual measurements for the noted sampling time-points. The terminal T1/2 with CI was calculated as 0.693/Kel. […] For the IV route, Vd was calculated using the formula Dose/C0, and clearance (Cl) was determined as Vd*Kel. […]

CCN(CC)C(=O)C1(c2ccccc2)CC1CN (racemic) [milnacipran, (±)-[1R(S), 2S(R)]-2-(aminomethyl)-N, N-diethyl-1-phenylcyclopropanecarboxamide hydrochloride]
bioavailability ([1]; po): ~ 90% | time to peak plasma concentrations ([1]; po): 2 to 4 h | terminal elimination half-life [1]: 6 to 10 h | volume of distribution [1]: 5.3 L/kg | Plasma protein binding [2]: around 13% | half-life ([3]; rat, in vivo, iv, 4.5 mg/kg): 6.7 h | half-life ([3]; rats, intranasal, 20 mg/kg): 1.13 h | bioavailability [4]: 92.5% | AUC(0-inf) ([4]; ip): 11000 ng·h/mL | AUC(0-t) ([4]; ip): 10300 ng·h/mL | Cmax ([4]; ip): 8530 ± 690 ng/mL | Kterm (plasma) ([4]; ip): 0.016 (0.013 to 0.019) min^−1 | MRT ([4]; ip): 58.3 min | Tmax ([4]; ip): 0.0833 h | Vd ([4]; ip): 3.37 L/kg | clearance ([4]; ip): 39.5 mL/min/kg | half-life ([4]; ip): 42.5 min | Tmax ([4]; ip, Tmax (brain)): ~1 h | AUC(0-inf) ([4]; iv): 11800 ng·h/mL | AUC(0-t) ([4]; iv): 10400 ng·h/mL | Kterm (plasma) ([4]; iv): 0.012 (0.011 to 0.013) min^−1 | MRT ([4]; iv): 57 min | T1/2 (plasma) ([4]; iv): 59.2 (54.4 to 64.1) min | Vd ([4]; iv): 3.65 L/kg | clearance ([4]; iv): 42.7 mL/min/kg | half-life ([4]; iv): 59 min | Tmax ([4]; iv, Tmax (brain)): ~1 h
